Measured values as given in ChEMBL document CHEMBL5365420, “Kinetics, Thermodynamics, and Structural Effects of Quinoline-2-Carboxylates, Zinc-Binding Inhibitors of New Delhi Metallo-β-lactamase-1 Re-sensitizing Multidrug-Resistant Bacteria for Carbapenems” (J Med Chem, 2023).

Assays:
[1] = tested on: Escherichia coli; test: Antibacterial activity against clinical isolate Escherichia coli K12 J53-ST10 618/15 expressing blaNDM-1 assessed as meropenem MIC at 59.20 uM measured after 20 hrs by broth microdilution assay (reference value: 24 mg/L); type: functional; settings: dose 59.2 µM
[2] = molecular target: Histone deacetylase 1 (Homo sapiens) (UniProt Q13547); test: Inhibition of C-terminal 6His/FLAG-tagged human recombinant full-length HDAC1 (1 to 482(end) residues) at 10 uM using Boc-Lys-(Ac)-AMC as substrate incubated for 10 mins followed by substrate addition measured after 1 hr by fluorescence based analysis relative to control; settings: time 70.0 min
Chain of Histone deacetylase 1 (Homo sapiens) (Q13547 whole entry): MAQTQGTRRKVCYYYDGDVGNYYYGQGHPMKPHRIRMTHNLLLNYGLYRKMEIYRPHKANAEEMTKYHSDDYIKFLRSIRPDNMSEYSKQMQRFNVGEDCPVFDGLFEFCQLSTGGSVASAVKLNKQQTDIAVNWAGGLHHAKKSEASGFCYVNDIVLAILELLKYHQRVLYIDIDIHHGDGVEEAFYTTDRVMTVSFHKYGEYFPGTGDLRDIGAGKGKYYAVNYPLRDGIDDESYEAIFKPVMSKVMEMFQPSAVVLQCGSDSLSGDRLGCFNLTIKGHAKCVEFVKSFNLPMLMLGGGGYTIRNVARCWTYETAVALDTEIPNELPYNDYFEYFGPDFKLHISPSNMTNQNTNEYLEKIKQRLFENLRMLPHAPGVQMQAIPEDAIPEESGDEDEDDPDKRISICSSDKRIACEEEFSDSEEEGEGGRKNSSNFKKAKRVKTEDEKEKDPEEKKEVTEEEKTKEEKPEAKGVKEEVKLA

[3] = tested on: Escherichia coli; test: Antibacterial activity against clinical isolate Escherichia coli ST1012/10 expressing blaNDM-1 co-expressing blaTEM-1/blaCTX-M-15/blaOXA-1 and blaOXA-2 assessed as meropenem MIC at 29.60 uM measured after 20 hrs by broth microdilution assay (reference value: 12 mg/L); type: functional; settings: dose 29.6 µM
[4] = tested on: Klebsiella pneumoniae; test: Antibacterial activity against clinical isolate Klebsiella pneumoniae ST23213/19 expressing blaNDM-1 co-expressing blaOXA-48/blaSHV-11/blaCTX-M-15 and blaOXA-1 assessed as meropenem MIC at 29.60 uM measured after 20 hrs by broth microdilution assay (reference value: 12 mg/L); type: functional; settings: dose 29.6 µM
[5] = tested on: Escherichia coli; test: Antibacterial activity against clinical isolate Escherichia coli K12 J53-ST10 684/18 expressing blaNDM-1 co-expressing blaCMY-2 and blaOXA-10 assessed as meropenem MIC at 59.20 uM measured after 20 hrs by broth microdilution assay (reference value: 24 mg/L); type: functional; settings: dose 59.2 µM
[6] = tested on: Klebsiella pneumoniae; test: Antibacterial activity against clinical isolate Klebsiella pneumoniae ST1493/10 expressing blaNDM-1 co-expressing blaCMY-2like/blaTEM-1/blaCTX-M-15/blaSHV-28/blaOXA-1 and blaOXA-9 assessed as meropenem MIC at 59.20 uM measured after 20 hrs by broth microdilution assay (reference value: 24 mg/L); type: functional; settings: dose 59.2 µM
[7] = molecular target: T1, 72 kDa type IV collagenase (Homo sapiens, UniProt P08253); test: Binding affinity to human recombinant MMP-2 CD assessed as inhibition constant using OMNIMMP as substrate incubated for 30 mins by fluorescence based analysis
Target sequence in this assay (P08253 whole entry): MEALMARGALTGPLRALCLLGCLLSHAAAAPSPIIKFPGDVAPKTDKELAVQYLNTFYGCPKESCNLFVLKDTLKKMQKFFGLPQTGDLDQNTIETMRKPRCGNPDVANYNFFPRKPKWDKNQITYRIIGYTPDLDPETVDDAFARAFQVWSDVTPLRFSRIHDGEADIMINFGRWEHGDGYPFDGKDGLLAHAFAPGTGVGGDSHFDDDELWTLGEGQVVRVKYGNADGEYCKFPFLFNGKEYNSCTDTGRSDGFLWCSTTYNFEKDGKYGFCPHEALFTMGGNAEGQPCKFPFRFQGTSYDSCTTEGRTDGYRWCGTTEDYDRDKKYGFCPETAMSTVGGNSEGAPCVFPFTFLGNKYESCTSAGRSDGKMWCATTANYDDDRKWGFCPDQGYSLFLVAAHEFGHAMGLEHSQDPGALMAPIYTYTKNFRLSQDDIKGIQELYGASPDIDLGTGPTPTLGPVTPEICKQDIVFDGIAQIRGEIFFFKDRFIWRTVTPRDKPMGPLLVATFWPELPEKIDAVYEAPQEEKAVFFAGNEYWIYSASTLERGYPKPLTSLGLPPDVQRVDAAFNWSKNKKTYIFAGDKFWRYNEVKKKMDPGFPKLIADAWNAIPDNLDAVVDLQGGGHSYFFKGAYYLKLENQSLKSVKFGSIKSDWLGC

[8] = tested on: Escherichia coli; test: Antibacterial activity against clinical isolate Escherichia coli K12 J53-ST10 699/15 expressing blaNDM-1 assessed as meropenem MIC at 29.60 uM measured after 20 hrs by broth microdilution assay (reference value: 12 mg/L); type: functional; settings: dose 29.6 µM
[9] = tested on: Klebsiella pneumoniae; test: Antibacterial activity against clinical isolate Klebsiella pneumoniae 62/07 expressing blaVIM-19 co-expressing blaSHV-1/blaCTX-M-14 and blaCMY-4 assessed as meropenem MIC at 59.20 uM measured after 20 hrs by broth microdilution assay (reference value: 24 mg/L); type: functional; settings: dose 59.2 µM
[10] = tested on: Escherichia coli; test: Antibacterial activity against clinical isolate Escherichia coli K12 J53-ST10 699/15 expressing blaNDM-1 assessed as meropenem MIC at 59.20 uM measured after 20 hrs by broth microdilution assay (reference value: 24 mg/L); type: functional; settings: dose 59.2 µM
[11] = tested on: Escherichia coli; test: Antibacterial activity against clinical isolate Escherichia coli ST1012/10 expressing blaNDM-1 co-expressing blaTEM-1/blaCTX-M-15/blaOXA-1 and blaOXA-2 assessed as meropenem MIC at 59.20 uM measured after 20 hrs by broth microdilution assay (reference value: 24 mg/L); type: functional; settings: dose 59.2 µM
[12] = tested on: Escherichia coli; test: Antibacterial activity against clinical isolate Escherichia coli K12 J53-ST10 618/15 expressing blaNDM-1 assessed as meropenem MIC at 29.60 uM measured after 20 hrs by broth microdilution assay (reference value: 12 mg/L); type: functional; settings: dose 29.6 µM
[13] = tested on: Escherichia coli; test: Antibacterial activity against clinical isolate Escherichia coli 371/12 expressing blaNDM-7 co-expressing blaCTX-M-15 and blaOXA-1 assessed as meropenem MIC at 29.60 uM measured after 20 hrs by broth microdilution assay (reference value: 12 mg/L); type: functional; settings: dose 29.6 µM
[14] = tested on: Klebsiella pneumoniae; test: Antibacterial activity against clinical isolate Klebsiella pneumoniae 62/07 expressing blaVIM-19 co-expressing blaSHV-1/blaCTX-M-14 and blaCMY-4 assessed as meropenem MIC at 29.60 uM measured after 20 hrs by broth microdilution assay (reference value: 12 mg/L); type: functional; settings: dose 29.6 µM
[15] = Inhibition of IMP-1 (unknown origin) expressed in Escherichia coli BL21-DE3 incubated for 15 mins by absorbance based microplate reader analysis; design: species or system Bacteria
[16] = tested on: Klebsiella pneumoniae; test: Antibacterial activity against clinical isolate Klebsiella pneumoniae 50/20 expressing blaNDM-5 co-expressing blaTEM-1 and blaSHV-1 assessed as meropenem MIC at 59.20 uM measured after 20 hrs by broth microdilution assay (reference value: 24 mg/L); type: functional; settings: dose 59.2 µM
[17] = tested on: Klebsiella pneumoniae; test: Antibacterial activity against clinical isolate Klebsiella pneumoniae 50/11 expressing blaNDM-1 co-expressing blaTEM-1/blaSHV-28/blaTEM-1/blaCTX-M-15 and blaOXA-1 assessed as meropenem MIC at 29.60 uM measured after 20 hrs by broth microdilution assay (reference value: 12 mg/L); type: functional; settings: dose 29.6 µM
[18] = tested on: Escherichia coli; test: Antibacterial activity against clinical isolate Escherichia coli K12 J53-ST10 684/18 expressing blaNDM-1 co-expressing blaCMY-2 and blaOXA-10 assessed as meropenem MIC at 29.60 uM measured after 20 hrs by broth microdilution assay (reference value: 12 mg/L); type: functional; settings: dose 29.6 µM
[19] = tested on: Klebsiella pneumoniae; test: Antibacterial activity against clinical isolate Klebsiella pneumoniae 50/20 expressing blaNDM-5 co-expressing blaTEM-1 and blaSHV-1 assessed as meropenem MIC at 29.60 uM measured after 20 hrs by broth microdilution assay (reference value: 12 mg/L); type: functional; settings: dose 29.6 µM
[20] = molecular target: Carbonic anhydrase 2 (Homo sapiens) (UniProt P00918); test: Inhibition of human CA2 at 10 uM using pNPA as substrate preincubated for 15 mins followed by substrate by absorbance based analysis relative to control
[21] = molecular target: T1, 72 kDa type IV collagenase; test: Inhibition of human recombinant MMP-2 CD at 10 uM using OMNIMMP as substrate incubated for 30 mins by fluorescence based analysis relative to control
Target sequence in this assay (P08253 110-660 limits assumed): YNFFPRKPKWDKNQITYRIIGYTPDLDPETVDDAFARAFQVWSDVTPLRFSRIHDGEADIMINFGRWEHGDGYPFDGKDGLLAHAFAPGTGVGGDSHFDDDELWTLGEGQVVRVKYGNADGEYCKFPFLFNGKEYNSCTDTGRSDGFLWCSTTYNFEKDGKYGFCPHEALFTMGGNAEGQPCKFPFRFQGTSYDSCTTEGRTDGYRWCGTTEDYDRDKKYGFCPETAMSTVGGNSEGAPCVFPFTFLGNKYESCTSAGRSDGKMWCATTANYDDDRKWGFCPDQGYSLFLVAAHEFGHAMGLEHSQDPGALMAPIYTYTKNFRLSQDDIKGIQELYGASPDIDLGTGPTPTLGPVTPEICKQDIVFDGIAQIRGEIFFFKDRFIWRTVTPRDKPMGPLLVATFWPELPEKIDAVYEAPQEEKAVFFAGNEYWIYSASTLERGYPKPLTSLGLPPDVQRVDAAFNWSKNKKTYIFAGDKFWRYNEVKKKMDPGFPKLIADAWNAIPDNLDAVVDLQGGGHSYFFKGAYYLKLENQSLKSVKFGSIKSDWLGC

[22] = tested on: Escherichia coli; test: Antibacterial activity against clinical isolate Escherichia coli K12 J53-ST10 696/17 expressing blaNDM-1 co-expressing blaCMY-4 assessed as meropenem MIC at 29.60 uM measured after 20 hrs by broth microdilution assay (reference value: 12 mg/L); type: functional; settings: dose 29.6 µM
[23] = tested on: Klebsiella pneumoniae; test: Antibacterial activity against clinical isolate Klebsiella pneumoniae ST23213/19 expressing blaNDM-1 co-expressing blaOXA-48/blaSHV-11/blaCTX-M-15 and blaOXA-1 assessed as meropenem MIC at 59.20 uM measured after 20 hrs by broth microdilution assay (reference value: 24 mg/L); type: functional; settings: dose 59.2 µM
[24] = Inhibition of VIM-2 (unknown origin) incubated for 15 mins by absorbance based microplate reader analysis; design: species or system Bacteria
[25] = tested on: Acinetobacter baumannii; test: Antibacterial activity against clinical isolate Acinetobacter baumannii IC 19/09 expressing blaNDM-1 co-expressing blaOXA-64 assessed as meropenem MIC at 29.60 uM measured after 20 hrs by broth microdilution assay (reference value: 12 mg/L); type: functional; settings: dose 29.6 µM
[26] = tested on: Klebsiella pneumoniae; test: Antibacterial activity against clinical isolate Klebsiella pneumoniae 50/11 expressing blaNDM-1 co-expressing blaTEM-1/blaSHV-28/blaTEM-1/blaCTX-M-15 and blaOXA-1 assessed as meropenem MIC at 59.20 uM measured after 20 hrs by broth microdilution assay (reference value: 24 mg/L); type: functional; settings: dose 59.2 µM
[27] = tested on: Klebsiella pneumoniae; test: Antibacterial activity against clinical isolate Klebsiella pneumoniae ST1493/10 expressing blaNDM-1 co-expressing blaCMY-2like/blaTEM-1/blaCTX-M-15/blaSHV-28/blaOXA-1 and blaOXA-9 assessed as meropenem MIC at 29.60 uM measured after 20 hrs by broth microdilution assay (reference value: 12 mg/L); type: functional; settings: dose 29.6 µM
[28] = tested on: Escherichia coli; test: Antibacterial activity against clinical isolate Escherichia coli K12 J53-ST10 696/17 expressing blaNDM-1 co-expressing blaCMY-4 assessed as meropenem MIC at 59.20 uM measured after 20 hrs by broth microdilution assay (reference value: 24 mg/L); type: functional; settings: dose 59.2 µM
[29] = tested on: Escherichia coli; test: Antibacterial activity against clinical isolate Escherichia coli 371/12 expressing blaNDM-7 co-expressing blaCTX-M-15 and blaOXA-1 assessed as meropenem MIC at 59.20 uM measured after 20 hrs by broth microdilution assay (reference value: 24 mg/L); type: functional; settings: dose 59.2 µM
[30] = tested on: Acinetobacter baumannii; test: Antibacterial activity against clinical isolate Acinetobacter baumannii IC 19/09 expressing blaNDM-1 co-expressing blaOXA-64 assessed as meropenem MIC at 59.20 uM measured after 20 hrs by broth microdilution assay (reference value: 24 mg/L); type: functional; settings: dose 59.2 µM

SMILES: O=C(O)c1cc(-c2ccccc2)c2cccc(NS(=O)(=O)c3ccccn3)c2n1
- MIC [1]: ≤ 0.125 µg/mL
- inhibition [2]: < 5%
- MIC [3]: 1 µg/mL
- MIC [4]: 32 µg/mL
- MIC [5]: ≤ 0.125 µg/mL
- MIC [6]: 1 µg/mL
- Ki [7]: 6920 nM
- MIC [8]: 1 µg/mL
- MIC [9]: 0.5 µg/mL
- MIC [10]: ≤ 0.125 µg/mL
- MIC [11]: ≤ 0.125 µg/mL
- MIC [12]: ≤ 0.125 µg/mL
- MIC [13]: 32 µg/mL
- MIC [14]: 8 µg/mL
- IC50 [15]: 250 nM
- MIC [16]: ≤ 0.125 µg/mL
- MIC [17]: 0.5 µg/mL
- MIC [18]: 0.25 µg/mL
- MIC [19]: 2 µg/mL
- inhibition [20]: < 5%
- inhibition [21]: > 90%
- MIC [22]: ≤ 0.125 µg/mL
- MIC [23]: 16 µg/mL
- IC50 [24]: 610 nM
- MIC [25]: 8 µg/mL
- MIC [26]: ≤ 0.125 µg/mL
- MIC [27]: 4 µg/mL
- MIC [28]: ≤ 0.125 µg/mL
- MIC [29]: ≤ 0.125 µg/mL
- MIC [30]: 1 µg/mL
